This note sets out measurements from ChEMBL document CHEMBL3046026, “Evaluation of the curative and protectant activity of fungicides and fungicide-adjuvant mixtures on Phomopsis cane and leaf spot of grape: A controlled environment study” (2007).

For experiment [1], the system named is Diaporthe ampelina. The experiment in a line: Antifungal activity against Diaporthe ampelina infected grape plant assessed as disease severity at internodes at 1.7 m3/ha incubated for 24 hr prior to treatment with 20 hr wetness period followed by 4 hr of drying period measured after 4 weeks in presence of regulaid (reference value: 3.2%). The experiment is classed as functional.

Experiment [2] has as its system Diaporthe ampelina. Kind of experiment: Antifungal activity against Diaporthe ampelina infected grape plant assessed as decrease in lesions on leaf at 0.25 […] a.i./ha incubated for 24 hr prior to treatment with 20 hr wetness period followed by 4 hr of drying period measured after 4 weeks relative to control in presence of regulaid. The experiment is classed as functional, organism-based.

The test system of experiment [3] is Diaporthe ampelina. The experiment in a line: Antifungal activity against Diaporthe ampelina infected grape plant assessed as disease severity at internodes at 0.25 […] a.i./ha incubated for 20 hr prior to treatment with 16 hr wetness period followed by 4 hr of drying period measured after 4 weeks in presence of regulaid (reference value: 7.3%). The experiment is classed as functional.

For experiment [4], the system named is Diaporthe ampelina. The experiment in a line: Antifungal activity against Diaporthe ampelina infected grape plant assessed as decrease in lesions on leaf at 0.25 […] a.i./ha treated 3 to 6 hr prior to inoculation followed by 24 hr wetness period measured after 4 weeks relative to control. The experiment is classed as functional, organism-based.
Experiment [5] relates to Diaporthe ampelina. Kind of experiment: Antifungal activity against Diaporthe ampelina infected grape plant assessed as decrease in lesions on leaf at 0.25 […] a.i./ha incubated for 48 hr prior to treatment with 24 hr wetness period followed by 24 hr of drying period measured after 4 weeks relative to control in presence of regulaid. The experiment is classed as functional, organism-based.

The subject of experiment [6] is Diaporthe ampelina. Kind of experiment: Antifungal activity against Diaporthe ampelina infected grape plant assessed as disease severity at internodes at 0.25 […] a.i./ha treated 3 to 6 hr prior to inoculation followed by 24 hr wetness period measured after 4 weeks (reference value: 2.6%). The experiment is classed as functional.
Experiment [7] relates to Diaporthe ampelina. The experiment in a line: Antifungal activity against Diaporthe ampelina infected grape plant assessed as decrease in lesions on leaf at 0.25 […] a.i./ha incubated for 20 hr prior to treatment with 16 hr wetness period followed by 4 hr of drying period measured after 4 weeks relative to control in presence of regulaid. The experiment is classed as functional, organism-based.

Experiment [8] relates to Diaporthe ampelina. Kind of experiment: Antifungal activity against Diaporthe ampelina infected grape plant assessed as decrease in lesions on leaf at 0.25 […] a.i./ha treated 3 to 6 hr prior to inoculation followed by 24 hr wetness period measured after 4 weeks relative to control in presence of regulaid. The experiment is classed as functional, organism-based.
Experiment [9] has as its system Diaporthe ampelina. Kind of experiment: Antifungal activity against Diaporthe ampelina infected grape plant assessed as disease severity at internodes at 0.25 […] a.i./ha incubated for 48 hr prior to treatment with 24 hr wetness period followed by 24 hr of drying period measured after 4 weeks in presence of regulaid (reference value: 12.2%). The experiment is classed as functional.

In experiment [10] the test system is Diaporthe ampelina. The experiment in a line: Antifungal activity against Diaporthe ampelina infected grape plant assessed as disease severity at internodes at 0.25 […] a.i./ha treated 3 to 6 hr prior to inoculation followed by 24 hr wetness period measured after 4 weeks in presence of regulaid (reference value: 2.9%). The experiment is classed as functional.

Experiment [11] deals with Diaporthe ampelina. The experiment in a line: Antifungal activity against Diaporthe ampelina infected grape plant assessed as decrease in lesions on leaf at 1.7 m3/ha incubated for 24 hr prior to treatment with 20 hr wetness period followed by 4 hr of drying period measured after 4 weeks relative to control in presence of regulaid. The experiment is classed as functional, organism-based.

Experiment [12] deals with Diaporthe ampelina. The experiment in a line: Antifungal activity against Diaporthe ampelina infected grape plant assessed as disease severity at internodes at 0.25 […] a.i./ha incubated for 24 hr prior to treatment with 20 hr wetness period followed by 4 hr of drying period measured after 4 weeks in presence of regulaid (reference value: 4.7%). The experiment is classed as functional.

For experiment [13], the system named is Diaporthe ampelina. Kind of experiment: Antifungal activity against Diaporthe ampelina infected grape plant assessed as re-isolation of mycelium from infected vines at 0.25 […] a.i./ha treated for weeks in presence of regulaid followed by inoculation on medium measured after 72 hr (reference value: 62.5%). The experiment is classed as functional.
In experiment [14] the test system is Diaporthe ampelina. The experiment in a line: Antifungal activity against Diaporthe ampelina infected grape plant assessed as decrease in lesions on leaf at 0.12 kg a.i./ha incubated for 20 hr prior to treatment with 16 hr wetness period and 4 hr drying time measured after 4 weeks relative to control in presence of regulaid. The experiment is classed as functional, organism-based.

Experiment [15] has as its system Diaporthe ampelina. The experiment in a line: Antifungal activity against Diaporthe ampelina infected grape plant assessed as decrease in lesions on leaf at 0.12 kg a.i./ha treated 3 to 6 hr prior to inoculation followed by 24 hr wetness period measured after 4 weeks relative to control in presence of regulaid. The experiment is classed as functional, organism-based.

The subject of experiment [16] is Diaporthe ampelina. Kind of experiment: Antifungal activity against Diaporthe ampelina infected grape plant assessed as disease severity at internodes at 0.12 kg a.i./ha incubated for 48 hr prior to treatment with 24 hr wetness period followed by 24 hr of drying period measured after 4 weeks in presence of regulaid (reference value: 12.2%). The experiment is classed as functional.

For experiment [17], the system named is Diaporthe ampelina. The experiment in a line: Antifungal activity against Diaporthe ampelina infected grape plant assessed as decrease in lesions on leaf at 0.12 kg a.i./ha incubated for 48 hr prior to treatment with 24 hr wetness period followed by 24 hr of drying period measured after 4 weeks relative to control in presence of regulaid. The experiment is classed as functional, organism-based.

Experiment [18] has as its system Diaporthe ampelina. Kind of experiment: Antifungal activity against Diaporthe ampelina infected grape plant assessed as disease severity at internodes at 0.12 kg a.i./ha incubated for 24 hr prior to treatment with 20 hr wetness period followed by 4 hr drying period measured after 4 weeks in presence of regulaid (reference value: 4.7%). The experiment is classed as functional.

Experiment [19] deals with Diaporthe ampelina. Kind of experiment: Antifungal activity against Diaporthe ampelina infected grape plant assessed as disease severity at internodes at 0.12 kg a.i./ha treated 3 to 6 hr prior to inoculation followed by 24 hr wetness period measured after 4 weeks in presence of regulaid (reference value: 2.9%). The experiment is classed as functional.
Experiment [20] relates to Diaporthe ampelina. The experiment in a line: Antifungal activity against Diaporthe ampelina infected grape plant assessed as decrease in lesions on leaf at 0.5 kg/ha incubated for 24 hr prior to treatment with 20 hr wetness period followed by 4 hr drying period measured after 4 weeks relative to control in presence of regulaid. The experiment is classed as functional, organism-based.

Experiment [21] concerns Diaporthe ampelina. The experiment in a line: Antifungal activity against Diaporthe ampelina infected grape plant assessed as disease severity at internodes at 0.5 kg/ha incubated for 24 hr prior to treatment with 20 hr wetness period followed by 4 hr drying period measured after 4 weeks in presence of regulaid (reference value: 3.2%). The experiment is classed as functional.

Experiment [22] has as its system Diaporthe ampelina. The experiment in a line: Antifungal activity against Diaporthe ampelina infected grape plant assessed as decrease in lesions on leaf at 0.12 kg a.i./ha treated 3 to 6 hr prior to inoculation followed by 24 hr wetness period measured after 4 weeks relative to control. The experiment is classed as functional, organism-based.
Experiment [23] has as its system Diaporthe ampelina. Kind of experiment: Antifungal activity against Diaporthe ampelina infected grape plant assessed as re-isolation of mycelium from infected vines at 0.12 kg a.i./ha treated for weeks in presence of regulaid followed by inoculation on medium measured after 72 hr (reference value: 62.5%). The experiment is classed as functional.
Experiment [24] relates to Diaporthe ampelina. The experiment in a line: Antifungal activity against Diaporthe ampelina infected grape plant assessed as disease severity at internodes at 0.12 kg a.i./ha treated 3 to 6 hr prior to inoculation followed by 24 hr wetness period measured after 4 weeks (reference value: 2.6%). The experiment is classed as functional.
Experiment [25] has as its system Diaporthe ampelina. The experiment in a line: Antifungal activity against Diaporthe ampelina infected grape plant assessed as disease severity at internodes at 0.12 kg a.i./ha incubated for 20 hr prior to treatment with 16 hr wetness period and 4 hr drying time measured after 4 weeks in presence of regulaid (reference value: 7.3%). The experiment is classed as functional.

In experiment [26] the test system is Diaporthe ampelina. Kind of experiment: Antifungal activity against Diaporthe ampelina infected grape plant assessed as decrease in lesions on leaf at 0.12 kg a.i./ha incubated for 24 hr prior to treatment with 20 hr wetness period followed by 4 hr drying period measured after 4 weeks relative to control in presence of regulaid. The experiment is classed as functional, organism-based.

Calls of active or inactive are those of the source. The rule behind the calls is not given here.

Consider `CO/C=C(/C(=O)OC)c1ccccc1Oc1cc(Oc2ccccc2C#N)ncn1` [AZOXYSTROBIN], for which the Activity is recorded as 3.2% with Diaporthe ampelina [1]; 5.3% in the experiment on Diaporthe ampelina [3]; 0.3% in the experiment with Diaporthe ampelina [6]; 3.7% in the experiment with Diaporthe ampelina [9]; 0.1% in the experiment with Diaporthe ampelina [10]; 4.9% with Diaporthe ampelina [12]. For the same compound, the Activity in the experiment on Diaporthe ampelina [13] was 8.4%. The result in the experiment on Diaporthe ampelina [2], with Diaporthe ampelina [5], in the experiment with Diaporthe ampelina [7] and with Diaporthe ampelina [11] was inactive. For the same compound, the outcome in the experiment on Diaporthe ampelina [4] and in the experiment with Diaporthe ampelina [8] was Active.
Regarding `CCCCC(C#N)(Cn1cncn1)c1ccc(Cl)cc1` (stereo unspecified) [MYCLOBUTANIL], the result in the experiment on Diaporthe ampelina [14], in the experiment on Diaporthe ampelina [15], in the experiment on Diaporthe ampelina [17], in the experiment on Diaporthe ampelina [20], in the experiment on Diaporthe ampelina [22] and in the experiment on Diaporthe ampelina [26] was inactive. In addition, the Activity with Diaporthe ampelina [16] is reported as 6.7%; in the experiment on Diaporthe ampelina [18], 3.5%; with Diaporthe ampelina [19] it was 0.1%; in the experiment on Diaporthe ampelina [21], 3.1%; in the experiment on Diaporthe ampelina [23], 68.7%; in the experiment with Diaporthe ampelina [24], 0.6%. Also, the Activity in the experiment with Diaporthe ampelina [25] was determined as 5.2%.
